From patent publication US7632844B2, “2-hydroxy-6-phenylphenanthridines as PDE-4 inhibitors” (Nycomed GmbH, priority 2002, dated 2009)

Molecular target: T1, PDE4B2 (GB no. M97515) (Homo sapiens, UniProt Q07343)
T1 construct: made in house; host or cells: SF21 insect cells (baculovirus; virus made in SF9 cells)
Assay: Inhibition of PDE4B2 activity, Method b (modified SPA test, recombinant PDE expressed in SF21 cells)
Type: biochemical
Settings: 0.5 μM cAMP, read-out: Inhibition of the PDE4 activity, −log IC50 (converted)
Procedure: The PDE4B2 (GB no. M97515) was a gift of Prof. M. Conti (Stanford University, USA). It was amplified from the original plasmid (pCMV5) via PCR with primers Rb9 (5′-[…]-3′) and Rb10 (5′-[…]-3′) and cloned into the pCR-Bac vector (Invitrogen, Groningen, NL).
The recombinant baculovirus was prepared by means of homologous recombination in SF9 insect cells. The expression plasmid was cotransfected with Bac-N-Blue (Invitrogen, Groningen, NL) or Baculo-Gold DNA (Pharmingen, Hamburg) using a standard protocol (Pharmingen, Hamburg). Wt virus-free recombinant virus supernatant was selected using plaque assay methods. After that, high-titre virus supernatant was prepared by amplifying 3 times. PDE was expressed in SF21 cells by infecting 2×10^6 cells/ml with an MOI (multiplicity of infection) between 1 and 10 in serum-free SF900 medium (Life Technologies, Paisley, UK). The cells were cultured at 28° C. for 48-72 hours, after which they were pelleted for 5-10 min at 1000 g and 4° C.
The SF21 insect cells were resuspended, at a concentration of approx. 10^7 cells/ml, in ice-cold (4° C.) homogenization buffer (20 mM Tris, pH 8.2, containing the following additions: 140 mM NaCl, 3.8 mM KCl, 1 mM EGTA, 1 mM MgCl2, 10 mM β-mercaptoethanol, 2 mM benzamidine, 0.4 mM Pefablock, 10 μM leupeptin, 10 μM pepstatin A, 5 μM trypsin inhibitor) and disrupted by ultrasonication. The homogenate was then centrifuged for 10 min at 1000×g and the supernatant was stored at −80° C. until subsequent use (see below). The protein content was determined by the Bradford method (BioRad, Munich) using BSA as the standard.
PDE4B2 activity is inhibited by the said compounds in a modified SPA (scintillation proximity assay) test, supplied by Amersham Biosciences (see procedural instructions “phosphodiesterase [3H]cAMP SPA enzyme assay, code TRKQ 7090”), carried out in 96-well microtiter plates (MTP's). The test volume is 100 μl and contains 20 mM Tris buffer (pH 7.4), 0.1 mg of BSA (bovine serum albumin)/ml, 5 mM Mg^2+, 0.5 μM cAMP (including about 50,000 cpm of [3H]cAMP), 1 μl of the respective substance dilution in DMSO and sufficient recombinant PDE (1000×g supernatant, see above) to ensure that 10-20% of the cAMP is converted under the said experimental conditions. […] After a preincubation of 5 min at 37° C., the reaction is started by adding the substrate (cAMP) and the assay is incubated for a further 15 min; after that, it is stopped by adding SPA beads (50 μl). In accordance with the manufacturer's instructions, the SPA beads had previously been resuspended in water, but were then diluted 1:3 (v/v) in water; the diluted solution also contains 3 mM IBMX to ensure a complete PDE activity stop. After the beads have been sedimented (>30 min), the MTP's are analyzed in commercially available luminescence detection devices. The corresponding IC50 values of the compounds for the inhibition of PDE activity are determined from the concentration-effect curves by means of non-linear regression.

T1 sequence (Q07343 1-564 isoform Q07343-2): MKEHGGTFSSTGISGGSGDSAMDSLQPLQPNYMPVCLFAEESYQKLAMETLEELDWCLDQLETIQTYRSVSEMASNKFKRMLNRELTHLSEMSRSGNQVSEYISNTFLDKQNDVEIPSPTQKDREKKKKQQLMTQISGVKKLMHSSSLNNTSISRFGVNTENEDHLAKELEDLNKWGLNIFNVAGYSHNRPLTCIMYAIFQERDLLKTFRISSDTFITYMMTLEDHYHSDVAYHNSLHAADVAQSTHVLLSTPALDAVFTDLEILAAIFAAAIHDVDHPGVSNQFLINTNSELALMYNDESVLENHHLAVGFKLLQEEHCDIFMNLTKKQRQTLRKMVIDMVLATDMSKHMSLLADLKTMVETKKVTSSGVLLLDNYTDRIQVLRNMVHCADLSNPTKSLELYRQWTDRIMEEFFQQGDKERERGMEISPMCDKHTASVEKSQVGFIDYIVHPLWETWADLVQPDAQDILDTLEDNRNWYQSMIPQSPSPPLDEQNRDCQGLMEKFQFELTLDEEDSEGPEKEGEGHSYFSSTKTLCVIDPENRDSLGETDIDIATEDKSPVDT

Structure (SMILES)	IC50
CCOc1cc2c(cc1OC)C(c1ccc(Br)cc1)=N[C@@H]1CC[C@@H](O)C[C@H]21 (racemic) [Compound 62, (±)-(2RS,4aRS,10bRS)-6-(4-Bromo-phenyl)-9-ethoxy-8-methoxy-1,2,3,4,4a,10b-hexahydro-phenanthridin-2-ol]	0.182 to 6.03 nM
COc1cc2c(cc1OC)[C@H]1C[C@H](O)CC[C@H]1N=C2c1ccc(OC(F)F)cc1 (racemic) [Compound 49, (±)-(2RS,4aRS,10bRS)-6-[4-(1,1-Difluoro-methoxy)-phenyl]-8,9-dimethoxy-1,2,3,4,4a,10b-hexahydro-phenanthridin-2-ol]	0.182 to 6.03 nM
CCOc1cc2c(cc1OC)C(c1ccc(C(=O)OC)cc1)=N[C@@H]1CC[C@@H](O)C[C@H]21 (racemic) [Compound 50, (±)-4-((2RS,4aRS,10bRS)-9-Ethoxy-2-hydroxy-8-methoxy-1,2,3,4,4a,10 b-hexahydro-phenanthridin-6-yl)-benzoic acid methyl ester]	0.182 to 6.03 nM
CCOc1cc2c(cc1OC)C(c1ccc(C#N)cc1)=N[C@@H]1CC[C@@H](O)C[C@H]21 (racemic) [Compound 52, (±)-4-((2RS,4aRS,10bRS)-9-Ethoxy-2-hydroxy-8-methoxy-1,2,3,4,4a,10b-hexahydro-phenanthridin-6-yl)-benzonitrile]	0.182 to 6.03 nM
CCOc1cc2c(cc1OC)C(c1ccc(OC(F)(F)F)cc1)=N[C@@H]1CC[C@@H](O)C[C@H]21 (racemic) [Compound 58, (±)-(2RS,4aRS,10bRS)-9-Ethoxy-8-methoxy-6-(4-trifluoromethoxy-phenyl)-1,2,3,4,4a,10b-hexahydro-phenanthridin-2-ol]	0.182 to 6.03 nM
CCOc1cc2c(cc1OC)C(c1ccc(OCC)c(OCC3CC3)c1)=N[C@@H]1CC[C@@H](O)C[C@H]21 (racemic) [Compound 53, (±)-(2RS,4aRS,10bRS)-6-(3-Cyclopropylmethoxy-4-ethoxy-phenyl)-9-ethoxy-8-methoxy-1,2,3,4,4a,10b-hexahydro-phenanthridin-2-ol]	0.182 to 6.03 nM
CCOc1cc2c(cc1OC)C(c1cccc(F)c1)=N[C@@H]1CC[C@@H](O)C[C@H]21 (racemic) [Compound 61, (±)-(2RS,4aRS, 10bRS)-9-Ethoxy-6-(3-fluoro-phenyl)-8-methoxy-1,2,3,4,4a,10b-hexahydro-phenanthridin-2-ol]	0.182 to 6.03 nM
COc1cc2c(cc1OC)[C@H]1C[C@H](O)CC[C@H]1N=C2c1ccc(Oc2ccccc2)cc1 (racemic) [Compound 64, (±)-(2RS,4aRS,10bRS)-8,9-Dimethoxy-6-(4-phenoxy-phenyl)-1,2,3,4,4a,10b-hexahydro-phenanthridin-2-ol]	0.182 to 6.03 nM
COCCO[C@@H]1CC[C@H]2N=C(c3ccc(OCC4CC4)c(OCC4CC4)c3)c3cc(OC)c(OC)cc3[C@H]2C1 (racemic) [Compound 76, (±)-(2RS,4aRS,10bRS)-6-(3,4-Bis-cyclopropylmethoxy-phenyl)-8,9-dimethoxy-2-(2-methoxy-ethoxy)-1,2,3,4,4a,10b-hexahydro-phenanthridine]	0.182 to 6.03 nM
CCCOc1cc(C2=N[C@@H]3CC[C@@H](O)C[C@@H]3c3cc(OC)c(OC)cc32)ccc1OC (racemic) [Compound 48, (±)-(2RS,4aRS,10bRS)-8,9-Dimethoxy-6-(4-methoxy-3-propoxy-phenyl)-1,2,3,4,4a,10b-hexahydro-phenanthridin-2-ol]	0.182 to 6.03 nM
COc1cc2c(cc1OC)[C@H]1C[C@H](O)CC[C@H]1N=C2c1ccc(Cl)cc1 (racemic) [Compound 46, (±)-(2RS,4aRS,10bRS)-6-(4-Chloro-phenyl)-8,9-dimethoxy-1,2,3,4,4a,10 b-hexahydro-phenanthridin-2-ol]	0.182 to 6.03 nM
CCOc1cc2c(cc1OC)C(c1ccc(OC)c(F)c1)=N[C@@H]1CC[C@@H](O)C[C@H]21 (racemic) [Compound 59, (±)-(2RS,4aRS,10bRS)-9-Ethoxy-6-(3-fluoro-4-methoxy-phenyl)-8-methoxy-1,2,3,4,4a,10b-hexahydro-phenanthridin-2-ol]	0.182 to 6.03 nM
CCOc1cc2c(cc1OC)C(c1ccc(OC(F)(F)C(F)F)cc1)=N[C@@H]1CC[C@@H](O)C[C@H]21 (racemic) [Compound 57, (±)-(2RS,4aRS,10bRS)-9-Ethoxy-8-methoxy-6-[4-(1,1,2,2-tetrafluoro-ethoxy)-phenyl]-1,2,3,4,4a,10b-hexahydro-phenanthridin-2-ol]	0.182 to 6.03 nM
CCOc1cc2c(cc1OC)C(c1ccc(OC(F)F)c(OC(F)F)c1)=N[C@@H]1CC[C@@H](O)C[C@H]21 (racemic) [Compound 55, (±)-(2RS,4aRS,10bRS)-6-[3,4-Bis-(1,1-difluoro-methoxy)-phenyl]-9-ethoxy-8-methoxy-1,2,3,4,4a,10b-hexahydro-phenanthridin-2-ol]	0.182 to 6.03 nM
COc1cc2c(cc1OC)[C@H]1C[C@H](O)CC[C@H]1N=C2c1ccc(NC(C)=O)cc1 (racemic) [Compound 45, (±)-N-[4-((2RS,4aRS,10bRS)-2-Hydroxy-8,9-dimethoxy-1,2,3,4,4a,10b-hexahydro-phenanthridin-6-yl)-phenyl]-acetamide]	0.182 to 6.03 nM
CCCCOc1ccc(C2=N[C@@H]3CC[C@@H](O)C[C@@H]3c3cc(OC)c(OC)cc32)cc1 (racemic) [Compound 43, (±)-(2RS,4aRS,10bRS)-6-(4-Butoxy-phenyl)-8,9-dimethoxy-1,2,3,4,4a,10b-hexahydrophenanthridin-2-ol]	0.182 to 6.03 nM
CCOc1cc2c(cc1OC)C(c1ccc(OC(F)F)c(OCC3CC3)c1)=N[C@@H]1CC[C@@H](O)C[C@H]21 (racemic) [Compound 54, (±)-(2RS,4aRS,10bRS)-6-[3-Cyclopropylmethoxy-4-(1,1-difluoro-methoxy)-phenyl]-9-ethoxy-8-methoxy-1,2,3,4,4a,10b-hexahydro-phenanthridin-2-ol]	0.182 to 6.03 nM
CCOc1cc2c(cc1OC)C(c1ccc(F)cc1)=N[C@@H]1CC[C@@H](O)C[C@H]21 (racemic) [Compound 51, (±)-(2RS,4aRS,10bRS)-9-Ethoxy-6-(4-fluoro-phenyl)-8-methoxy-1,2,3,4,4a,10b-hexahydro-phenanthridin-2-ol]	0.182 to 6.03 nM
COc1cc2c(cc1OC)[C@H]1C[C@H](O)CC[C@H]1N=C2c1ccc(C)cc1 (racemic) [Compound 63, (±)-(2RS,4aRS,10bRS)-8,9-Dimethoxy-6-p-tolyl-1,2,3,4,4a,10b-hexahydro-phenanthridin-2-ol]	0.182 to 6.03 nM
CCOc1cc2c(cc1OC)C(c1cccc(OC(F)F)c1)=N[C@@H]1CC[C@@H](O)C[C@H]21 (racemic) [Compound 56, (±)-(2RS,4aRS,10bRS)-6-[3-(1,1-Difluoro-methoxy)-phenyl]-9-ethoxy-8-methoxy-1,2,3,4,4a,10b-hexahydro-phenanthridin-2-ol]	0.182 to 6.03 nM
CCOc1cc2c(cc1OC)C(c1ccc(F)c(F)c1)=N[C@@H]1CC[C@@H](O)C[C@H]21 (racemic) [Compound 60, (±)-(2RS,4aRS,10bRS)-6-(3,4-Difluoro-phenyl)-9-ethoxy-8-methoxy-1,2,3,4,4a,10b-hexahydro-phenanthridin-2-ol]	0.182 to 6.03 nM
